Measurements from patent US20240293412A1, “NAMPT ACTIVATORS FOR TREATING METABOLIC AND NEUROLOGICAL DISORDERS” (The Board of Trustees of the University of Illinois, priority 2021, published 2024).

Experiments:
NAMPT = NAMPT (Homo sapiens (Human), UniProt P43490); assay: NAMPT coupled enzyme activity assay; assay type: biochemical; conditions: NAMPT activation, Table 2; for Emax: read-out: Maximum activation (%)
THP-1 cells = assay: cells; conditions: Homo sapiens, THP-1, 24 h; for Emax: read-out: Maximum activation (%)

Sequence of NAMPT (P43490 whole entry): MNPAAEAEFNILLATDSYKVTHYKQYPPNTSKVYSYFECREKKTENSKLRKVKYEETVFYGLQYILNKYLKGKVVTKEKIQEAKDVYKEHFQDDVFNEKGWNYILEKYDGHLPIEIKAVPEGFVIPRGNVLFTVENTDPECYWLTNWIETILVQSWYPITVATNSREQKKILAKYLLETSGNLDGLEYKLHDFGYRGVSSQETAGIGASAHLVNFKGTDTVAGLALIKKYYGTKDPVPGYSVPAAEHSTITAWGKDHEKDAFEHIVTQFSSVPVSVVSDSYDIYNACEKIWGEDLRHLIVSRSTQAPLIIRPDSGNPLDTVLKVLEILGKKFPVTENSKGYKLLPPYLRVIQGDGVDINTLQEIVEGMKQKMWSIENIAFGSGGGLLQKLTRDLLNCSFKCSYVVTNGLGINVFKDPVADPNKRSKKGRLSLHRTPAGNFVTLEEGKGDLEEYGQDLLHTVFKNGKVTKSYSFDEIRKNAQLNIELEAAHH

Structure (SMILES) | EC50 (NAMPT) [µM] | Emax (NAMPT) [%] | EC50 (THP-1 cells) [µM] | Emax (THP-1 cells) [%]
Cc1ccc(-n2cc3c(N4CCCC(C(=O)NCc5ccc(N(C)C)cc5)C4)ncnc3n2)cc1 (stereo not drawn) | 0.16 | 186 | – | –
CSc1ccc(CNC(=O)[C@H]2CCCN(c3ncnc4nn(-c5ccc(C)cc5)cc34)C2)cc1 | – | – | 3.2 | 202

Further lines, with some results ahead:

EC50 (NAMPT) [µM] | Emax (NAMPT) [%] | EC50 (THP-1 cells) [µM] | Structure (SMILES) | Emax (THP-1 cells) [%]
9.4 | 240 | – | CSc1ccc(CNC(=O)C2CCN(c3ncnc4nn(-c5ccc(C)cc5)cc34)CC2)cc1 | –
– | – | 0.74 | O=C(NCc1ccc2sccc2c1)[C@H]1CCCN(c2ncnc3nn(-c4ccc(C(F)(F)F)cc4)cc23)C1 | 150
> 10 | – | – | Cc1ccc(-n2cc3c(N4CCCC(C(=O)NCc5cc[nH]n5)C4)ncnc3n2)cc1 (stereo not drawn) | –
